Results from article PMC10831786 (Virus Research, 2024).
Structures can show the parent of a compound that is named as a salt.

Assays:
Entamoeba histolytica [1] = experiment: Growth inhibition of Entamoeba histolytica in vitro (literature); assay type: cell-based; details: anti-coronavirus IC50 versus amebae
[2] = molecular target: T1, l-type calcium current ICaL (Homo sapiens, UniProt Q13936); experiment: Patch clamp recording of ICaL in human iPSC-derived cardiomyocytes; assay type: cell-based
T1 construct: host or cells: human iPSC-derived ventricular cardiomyocytes
T1 sequence (Q13936 whole entry): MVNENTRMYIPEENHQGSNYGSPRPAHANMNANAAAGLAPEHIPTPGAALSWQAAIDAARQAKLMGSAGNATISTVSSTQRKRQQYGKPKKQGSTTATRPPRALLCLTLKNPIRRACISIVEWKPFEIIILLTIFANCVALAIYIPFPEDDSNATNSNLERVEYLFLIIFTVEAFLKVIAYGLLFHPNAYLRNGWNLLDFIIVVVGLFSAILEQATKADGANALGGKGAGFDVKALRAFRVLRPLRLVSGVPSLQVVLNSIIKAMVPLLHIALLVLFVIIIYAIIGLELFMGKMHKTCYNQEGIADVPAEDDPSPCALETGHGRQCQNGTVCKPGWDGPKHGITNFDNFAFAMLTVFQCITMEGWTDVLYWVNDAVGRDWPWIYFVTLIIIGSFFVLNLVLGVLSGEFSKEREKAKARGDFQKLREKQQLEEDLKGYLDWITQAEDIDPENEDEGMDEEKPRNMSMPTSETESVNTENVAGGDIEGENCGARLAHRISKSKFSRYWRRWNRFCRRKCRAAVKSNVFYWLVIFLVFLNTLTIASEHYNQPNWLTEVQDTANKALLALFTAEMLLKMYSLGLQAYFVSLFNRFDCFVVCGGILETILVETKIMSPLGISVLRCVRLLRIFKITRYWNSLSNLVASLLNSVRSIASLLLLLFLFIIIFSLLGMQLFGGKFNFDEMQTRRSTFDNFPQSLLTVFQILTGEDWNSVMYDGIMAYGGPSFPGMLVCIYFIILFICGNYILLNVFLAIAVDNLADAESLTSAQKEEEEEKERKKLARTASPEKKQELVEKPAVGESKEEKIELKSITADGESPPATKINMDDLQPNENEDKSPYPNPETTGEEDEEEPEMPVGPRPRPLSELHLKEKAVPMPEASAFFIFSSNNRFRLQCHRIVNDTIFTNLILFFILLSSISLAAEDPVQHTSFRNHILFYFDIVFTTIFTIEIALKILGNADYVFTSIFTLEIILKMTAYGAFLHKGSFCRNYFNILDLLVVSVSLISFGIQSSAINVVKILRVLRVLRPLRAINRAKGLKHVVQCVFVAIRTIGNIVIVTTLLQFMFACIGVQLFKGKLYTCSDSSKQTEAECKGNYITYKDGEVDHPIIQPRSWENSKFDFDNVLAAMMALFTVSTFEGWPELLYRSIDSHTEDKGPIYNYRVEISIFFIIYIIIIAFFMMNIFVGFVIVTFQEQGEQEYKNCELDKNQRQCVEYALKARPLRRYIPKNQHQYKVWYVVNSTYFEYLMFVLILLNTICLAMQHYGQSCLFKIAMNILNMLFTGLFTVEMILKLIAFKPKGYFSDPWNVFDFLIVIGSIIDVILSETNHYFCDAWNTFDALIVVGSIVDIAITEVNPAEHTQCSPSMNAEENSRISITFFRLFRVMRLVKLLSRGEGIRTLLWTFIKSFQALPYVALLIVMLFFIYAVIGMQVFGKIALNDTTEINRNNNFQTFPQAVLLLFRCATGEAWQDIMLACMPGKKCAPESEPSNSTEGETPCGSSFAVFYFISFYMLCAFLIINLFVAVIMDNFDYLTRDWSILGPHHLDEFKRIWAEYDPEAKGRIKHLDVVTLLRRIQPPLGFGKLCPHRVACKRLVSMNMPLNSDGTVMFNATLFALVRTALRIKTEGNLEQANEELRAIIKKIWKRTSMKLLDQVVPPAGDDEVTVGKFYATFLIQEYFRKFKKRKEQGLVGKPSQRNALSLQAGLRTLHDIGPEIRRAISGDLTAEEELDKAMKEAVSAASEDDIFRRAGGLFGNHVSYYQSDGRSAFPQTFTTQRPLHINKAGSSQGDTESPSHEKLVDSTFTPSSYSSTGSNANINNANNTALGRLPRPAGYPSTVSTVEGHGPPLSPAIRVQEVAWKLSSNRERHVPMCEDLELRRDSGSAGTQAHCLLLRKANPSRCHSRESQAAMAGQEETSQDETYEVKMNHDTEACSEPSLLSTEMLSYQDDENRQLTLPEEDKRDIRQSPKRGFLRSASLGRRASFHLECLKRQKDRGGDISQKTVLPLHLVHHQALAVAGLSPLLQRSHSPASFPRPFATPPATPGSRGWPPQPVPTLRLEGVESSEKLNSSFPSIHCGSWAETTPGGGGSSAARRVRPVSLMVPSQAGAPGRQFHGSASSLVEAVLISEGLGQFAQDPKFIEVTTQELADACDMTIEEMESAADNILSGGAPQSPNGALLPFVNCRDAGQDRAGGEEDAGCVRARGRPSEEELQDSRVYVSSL
T1 sequence (P54289 25-956, further chain): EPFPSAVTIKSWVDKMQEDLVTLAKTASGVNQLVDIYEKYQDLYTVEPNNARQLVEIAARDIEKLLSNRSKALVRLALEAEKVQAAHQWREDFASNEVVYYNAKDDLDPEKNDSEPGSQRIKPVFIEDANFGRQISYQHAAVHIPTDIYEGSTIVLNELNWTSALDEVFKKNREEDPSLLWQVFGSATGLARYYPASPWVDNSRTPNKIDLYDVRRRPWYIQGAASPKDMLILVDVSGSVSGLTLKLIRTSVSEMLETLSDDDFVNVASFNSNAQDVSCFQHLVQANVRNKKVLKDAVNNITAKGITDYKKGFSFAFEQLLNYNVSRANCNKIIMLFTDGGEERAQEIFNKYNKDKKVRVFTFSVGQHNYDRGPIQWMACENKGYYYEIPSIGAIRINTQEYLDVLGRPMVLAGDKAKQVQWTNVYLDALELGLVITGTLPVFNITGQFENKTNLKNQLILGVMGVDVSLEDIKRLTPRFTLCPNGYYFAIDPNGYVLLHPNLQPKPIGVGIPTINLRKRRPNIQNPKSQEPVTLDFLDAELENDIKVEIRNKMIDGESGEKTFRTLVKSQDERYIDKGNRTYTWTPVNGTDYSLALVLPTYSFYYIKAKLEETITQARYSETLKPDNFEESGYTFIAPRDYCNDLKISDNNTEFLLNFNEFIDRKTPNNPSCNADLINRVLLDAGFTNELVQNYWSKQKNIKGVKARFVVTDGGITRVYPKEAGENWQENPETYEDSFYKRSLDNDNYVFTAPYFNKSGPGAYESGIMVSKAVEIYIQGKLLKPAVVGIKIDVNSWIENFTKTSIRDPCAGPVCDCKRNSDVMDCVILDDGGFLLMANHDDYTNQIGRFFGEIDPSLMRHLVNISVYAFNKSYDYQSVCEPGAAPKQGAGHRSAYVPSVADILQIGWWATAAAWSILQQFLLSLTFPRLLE
T1 sequence (P54289 957-1103, further chain): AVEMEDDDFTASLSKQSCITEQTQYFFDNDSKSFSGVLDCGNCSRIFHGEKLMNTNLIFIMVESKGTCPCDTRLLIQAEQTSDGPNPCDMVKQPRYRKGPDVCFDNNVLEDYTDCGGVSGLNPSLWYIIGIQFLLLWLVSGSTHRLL
T1 sequence (Q08289 whole entry, further chain): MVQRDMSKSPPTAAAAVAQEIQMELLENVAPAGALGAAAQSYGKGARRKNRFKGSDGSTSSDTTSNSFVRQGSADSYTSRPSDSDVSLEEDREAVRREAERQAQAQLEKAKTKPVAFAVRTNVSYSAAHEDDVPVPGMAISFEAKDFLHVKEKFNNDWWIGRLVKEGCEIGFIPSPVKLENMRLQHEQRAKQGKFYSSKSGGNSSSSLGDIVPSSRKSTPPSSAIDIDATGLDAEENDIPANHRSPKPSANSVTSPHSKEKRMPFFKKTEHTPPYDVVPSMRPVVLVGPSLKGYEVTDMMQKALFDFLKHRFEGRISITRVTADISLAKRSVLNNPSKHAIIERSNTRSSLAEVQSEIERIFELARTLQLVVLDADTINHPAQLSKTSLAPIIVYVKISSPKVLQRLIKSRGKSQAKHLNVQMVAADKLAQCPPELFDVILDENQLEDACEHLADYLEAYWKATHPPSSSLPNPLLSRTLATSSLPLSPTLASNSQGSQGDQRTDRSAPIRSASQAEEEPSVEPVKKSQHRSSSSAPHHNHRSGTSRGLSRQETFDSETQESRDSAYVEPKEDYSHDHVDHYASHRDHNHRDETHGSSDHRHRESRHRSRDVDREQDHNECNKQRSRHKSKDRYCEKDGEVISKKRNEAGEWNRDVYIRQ
Protocol: iPSC cells (Axol Bioscience Ltd, FL, USA) were plated at a density of 25,000 cells/cm^2 on coverslips coated with 1x Axol Fibronectin Coating Solution in Axol Plating Medium (Axol Cardiomyocyte Maintenance Medium, 10 % fetal bovine serum and 10 μM Y-27,632 2HCl) according to manufacturer's instructions. The next day the medium was changed to Axol Cardiomyocyte Maintenance Medium. Cells were maintained at 5 % CO2, 37 °C in humidified conditions. Medium was replaced every other day.
An Axopatch −1D (Axon Instruments: Molecular Devices LLC, CA, USA) amplifier and […] were used for recording and data analysis. Patch electrode resistance was set at 4–6 MΩ and room temperature was 22 ± 1 °C. During the recording, cells were held at −50 mV, then, the voltage was gradually raised to +60 mV in 10 mV increments with 300 ms pulse. The bath solution included the following components: 137 mM TEA-Cl, 1 mM MgCl2, 2 mM CaCl2, 10 mM HEPES, 10 mM glucose (pH 7.4, adjusted with TEA-OH). For the pipette the solution contained: 111 mM CsCl, 20 mM TEA-Cl, 10 mM glucose, 10 mM HEPES, 14 mM EGTA, 5 mM MgATP (pH 7.2, adjusted with CsOH).
D represents the concentrations of a given drug.

sodium channel = molecular target: sodium channel; parameters: method as in Lemmens-Gruber et al., 1997; details: ref Lemmens-Gruber et al., 1997; read-out: Kd, sodium channel reduction; cited from earlier work
Entamoeba histolytica [3] = details: in vitro; ref Burchard and Mirelman, 1988; cited from earlier work
[4] = MTS assay, growth inhibition and toxicity in non-infected BEC-hACE2 cells; assay type: cell-based, human; details: human, sub-confluent non-infected BEC-hACE2 cells; sub-confluent BEC-hACE2, 24 h; read-out: MTS, CC50 (50 % effect)
Protocol: (§1) Detailed methods are provided in Supplementary Information.
(§2) Vero E6 and BEC-hACE2 cells were grown to 70-80% density in their maintenance media and exposed to various concentrations of ipecac alkaloids (0.0125 – 200 µM) under standard culture conditions for 48-72 h and 24 h, respectively. Controls with varying amounts of DMSO and no DMSO were included also. Vero E6 cells were incubated with drugs in 2% FBS-EMEM, while BEC-HACE2 cells were grown and treated in complete PCS-300-03 medium with supplements. Similar treatments were also conducted using fully confluent non-growing BEC-hACE2 cells. At the end of the exposure period, MTS reagent (Promega G3580) was added at 1/5th of the medium volume and color was allowed to develop by incubation of the plates for an hour in a cell culture incubator. To stop reactions, SDS was added to a final concentration of 2% and optical density of samples was measured at 450 or 490 nm, depending on the model of spectrophotometer (PharmaciaBiotech, NJ, USA; UV spectrophotometer, model Ultrospec2000) or plate reader (Molecular Devices, CA, USA; model Filter Max F5 Multi-mode microplate reader) available at the time of experiment.

[5] = MTS assay, growth inhibition and toxicity in non-infected Vero E6 cells; assay type: cell-based, African green monkey; details: African green monkey, non-infected Vero E6 cells, MTS, 72 h; read-out: Fifty percent effect (CC50) in non-infected Vero E6
Protocol: as §1, §2

Row | SMILES | Fold, antiviral concentrations lower than those required to kill amebae (Entamoeba histolytica [1]) | Kd [2] | Peak current density, ICaL ([2]; human IPSC-derived cardiomyocytes, DHE4 30 uM (control 13.5)) | Peak current density, ICaL, washout ([2]; human IPSC-derived cardiomyocytes, after washout of DHE4 30 uM (control 13.5)) | Kd (sodium channel) | Concentration required to inhibit growth of Entamoeba histolytica (Entamoeba histolytica [3]) | CC50 at 24 h [4] | CC50 at 72 h [5] | Estimated reduction in ICaL ([2]; human cardiomyocytes, assuming 25 µM)
1 | CCC1=C(C[C@H]2NCCc3cc(OC)c(OC)cc32)C[C@H]2c3cc(OC)c(OC)cc3CCN2C1 [DHE4, 4H-Benzo[a]quinolizine, 3-ethyl-1,6,7,11b-tetrahydro-9,10-dimethoxy-2-[[(1R)-1,2,3,4-tetrahydro-6,7-dimethoxy-1-isoquinolinyl]methyl]-, (11bS)-] | 125–250 fold | 60 µM | 8.9 | 9.8 |  |  |  |  | 
2 | CC[C@H]1CN2CCc3cc(OC)c(OC)cc3[C@@H]2C[C@@H]1C[C@H]1NCCc2cc(OC)c(OC)cc21 [Emetine, 2H-Benzoaquinolizine, 3-ethyl-1,3,4,6,7,11b-hexahydro-9,10-dimethoxy-2-(1R)-1,2,3,4-tetrahydro-6,7-dimethoxy-1-isoquinolinylmethyl-, dihydrochloride, (2S,3R,11bS)-, reference compound] |  |  |  |  | 15 µM | 12 to 25 µM | 100 µM | 1.52 µM | approximately one-third
